Results as given in ChEMBL document CHEMBL1201862, “PubChem BioAssay data set” (2004).
Calls of active or inactive are those of the source.

How the values were obtained:
[1] = molecular target: T1, Estrogen receptor (Homo sapiens, UniProt P03372); assay: potentiators of ERα–SRC-1 coactivator binding, dose response, biochemical, TR-FRET, ERα LBD (AID 737)
T1 sequence (P03372 whole entry): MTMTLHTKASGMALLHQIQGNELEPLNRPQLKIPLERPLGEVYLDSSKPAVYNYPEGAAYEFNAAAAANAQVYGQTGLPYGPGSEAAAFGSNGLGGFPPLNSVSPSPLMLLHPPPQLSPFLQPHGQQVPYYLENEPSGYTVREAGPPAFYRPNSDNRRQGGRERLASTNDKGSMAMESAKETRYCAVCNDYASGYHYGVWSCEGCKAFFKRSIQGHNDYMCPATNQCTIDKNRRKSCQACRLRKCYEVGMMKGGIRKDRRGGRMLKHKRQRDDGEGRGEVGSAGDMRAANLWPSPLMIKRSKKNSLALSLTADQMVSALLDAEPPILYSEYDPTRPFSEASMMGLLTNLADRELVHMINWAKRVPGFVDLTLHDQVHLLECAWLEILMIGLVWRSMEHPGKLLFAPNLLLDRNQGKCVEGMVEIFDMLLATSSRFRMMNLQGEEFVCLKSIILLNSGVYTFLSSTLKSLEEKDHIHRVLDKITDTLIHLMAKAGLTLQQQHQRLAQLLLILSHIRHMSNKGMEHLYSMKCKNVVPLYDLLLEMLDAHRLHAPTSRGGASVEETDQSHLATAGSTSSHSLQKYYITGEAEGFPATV

[2] = molecular target: T2, Bcl-2-related protein A1 (Mus musculus, UniProt Q07440); assay type: functional;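 further: confirmatory dose–response counterscreen on Bfl-1, used to check hits from a UBC13 polyubiquitin inhibitor campaign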
T2 sequence (Q07440 whole entry): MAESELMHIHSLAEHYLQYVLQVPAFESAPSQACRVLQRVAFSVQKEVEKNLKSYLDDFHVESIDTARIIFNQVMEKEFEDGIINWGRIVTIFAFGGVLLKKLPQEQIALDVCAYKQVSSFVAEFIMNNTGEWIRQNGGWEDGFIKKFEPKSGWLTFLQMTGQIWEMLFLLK

[3] = molecular target: T3, Ubiquitin-conjugating enzyme E2 N (Homo sapiens, UniProt P61088); assay type: functional
T3 sequence (P61088 whole entry): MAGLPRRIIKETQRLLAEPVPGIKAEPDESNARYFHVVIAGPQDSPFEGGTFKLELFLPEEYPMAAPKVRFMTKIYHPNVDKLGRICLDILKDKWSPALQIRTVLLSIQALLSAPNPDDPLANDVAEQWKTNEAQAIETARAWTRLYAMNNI

[4] = Shn3 3'UTR reporter inhibitors, dose response, cell-based, Clone20 osteoblasts, firefly luciferase, cherry-picked (AID 624132); assay type: functional;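 further: firefly luciferase luminescence from reporter carrying the Shn3 3'UTR in osteoblasts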
[5] = molecular target: T4, High affinity choline transporter 1 (Homo sapiens, UniProt Q9GZV3); assay: CHT inhibitors, dose response, cell-based, 10-point CRC, membrane potential dye (AID 588401); assay type: functional;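 further: membrane potential dye fluorescence of choline-evoked depolarization via CHT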
T4 sequence (Q9GZV3 whole entry): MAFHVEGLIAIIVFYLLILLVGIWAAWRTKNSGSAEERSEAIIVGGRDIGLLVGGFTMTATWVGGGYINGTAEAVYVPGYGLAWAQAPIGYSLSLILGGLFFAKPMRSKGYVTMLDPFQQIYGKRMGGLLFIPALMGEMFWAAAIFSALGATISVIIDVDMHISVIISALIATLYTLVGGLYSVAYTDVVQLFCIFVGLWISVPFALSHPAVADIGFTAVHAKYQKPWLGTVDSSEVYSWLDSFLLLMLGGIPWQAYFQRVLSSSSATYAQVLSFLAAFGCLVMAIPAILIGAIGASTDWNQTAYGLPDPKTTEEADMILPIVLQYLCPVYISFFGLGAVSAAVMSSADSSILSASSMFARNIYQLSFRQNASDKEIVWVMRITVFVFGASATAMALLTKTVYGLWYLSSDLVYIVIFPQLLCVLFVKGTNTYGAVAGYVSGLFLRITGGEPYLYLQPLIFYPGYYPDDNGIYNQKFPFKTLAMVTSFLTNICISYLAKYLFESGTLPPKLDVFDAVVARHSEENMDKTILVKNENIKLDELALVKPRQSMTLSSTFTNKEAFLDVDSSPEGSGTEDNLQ

[6] = molecular target: Genome polyprotein (dengue virus type 2, UniProt P29990); assay: Dengue-2 NS5 methyltransferase inhibitors, primary screen, biochemical, confirmation dose response (AID 588689); assay type: functional
Chain of Genome polyprotein (P29990 2492-3391 limits assumed): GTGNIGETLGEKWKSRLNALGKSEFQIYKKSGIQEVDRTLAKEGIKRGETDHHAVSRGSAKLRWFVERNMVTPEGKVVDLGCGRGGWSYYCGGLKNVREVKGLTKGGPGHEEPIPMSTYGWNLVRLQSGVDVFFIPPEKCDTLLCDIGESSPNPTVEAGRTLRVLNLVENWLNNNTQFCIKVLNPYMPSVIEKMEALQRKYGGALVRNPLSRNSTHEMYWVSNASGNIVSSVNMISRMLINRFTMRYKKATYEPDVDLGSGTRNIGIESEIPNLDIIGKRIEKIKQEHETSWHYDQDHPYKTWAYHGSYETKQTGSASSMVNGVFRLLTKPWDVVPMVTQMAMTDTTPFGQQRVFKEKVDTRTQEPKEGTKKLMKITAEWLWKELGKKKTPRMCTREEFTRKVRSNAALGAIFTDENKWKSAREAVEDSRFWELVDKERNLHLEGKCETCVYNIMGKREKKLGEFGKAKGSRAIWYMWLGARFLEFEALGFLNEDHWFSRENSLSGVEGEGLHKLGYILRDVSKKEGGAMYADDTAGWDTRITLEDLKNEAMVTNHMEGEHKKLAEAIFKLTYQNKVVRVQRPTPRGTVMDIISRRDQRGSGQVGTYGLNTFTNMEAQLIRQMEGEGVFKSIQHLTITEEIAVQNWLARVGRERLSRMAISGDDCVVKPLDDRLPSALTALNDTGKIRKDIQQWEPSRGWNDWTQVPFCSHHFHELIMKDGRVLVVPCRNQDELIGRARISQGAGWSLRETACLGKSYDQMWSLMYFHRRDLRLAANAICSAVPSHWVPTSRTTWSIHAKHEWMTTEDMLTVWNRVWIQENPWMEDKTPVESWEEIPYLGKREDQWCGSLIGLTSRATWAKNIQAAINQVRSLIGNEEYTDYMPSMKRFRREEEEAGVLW

[7] = system: Vero; assay: Vero cell cytotoxicity, cytotoxicity control for flavivirus capping enzyme inhibitors (AID 588742); assay type: functional; conditions: Chlorocebus sabaeus
[8] = molecular target: Potassium voltage-gated channel subfamily KQT member 2 (Rattus norvegicus, UniProt O88943, W236L); assay: KCNQ2 channel potentiators, dose response, mechanism study for KCNQ2 potentiator project, cell-based, automated electrophysiology (AID 2603); assay type: functional
Chain of Potassium voltage-gated channel subfamily KQT member 2 (O88943 whole entry W236L): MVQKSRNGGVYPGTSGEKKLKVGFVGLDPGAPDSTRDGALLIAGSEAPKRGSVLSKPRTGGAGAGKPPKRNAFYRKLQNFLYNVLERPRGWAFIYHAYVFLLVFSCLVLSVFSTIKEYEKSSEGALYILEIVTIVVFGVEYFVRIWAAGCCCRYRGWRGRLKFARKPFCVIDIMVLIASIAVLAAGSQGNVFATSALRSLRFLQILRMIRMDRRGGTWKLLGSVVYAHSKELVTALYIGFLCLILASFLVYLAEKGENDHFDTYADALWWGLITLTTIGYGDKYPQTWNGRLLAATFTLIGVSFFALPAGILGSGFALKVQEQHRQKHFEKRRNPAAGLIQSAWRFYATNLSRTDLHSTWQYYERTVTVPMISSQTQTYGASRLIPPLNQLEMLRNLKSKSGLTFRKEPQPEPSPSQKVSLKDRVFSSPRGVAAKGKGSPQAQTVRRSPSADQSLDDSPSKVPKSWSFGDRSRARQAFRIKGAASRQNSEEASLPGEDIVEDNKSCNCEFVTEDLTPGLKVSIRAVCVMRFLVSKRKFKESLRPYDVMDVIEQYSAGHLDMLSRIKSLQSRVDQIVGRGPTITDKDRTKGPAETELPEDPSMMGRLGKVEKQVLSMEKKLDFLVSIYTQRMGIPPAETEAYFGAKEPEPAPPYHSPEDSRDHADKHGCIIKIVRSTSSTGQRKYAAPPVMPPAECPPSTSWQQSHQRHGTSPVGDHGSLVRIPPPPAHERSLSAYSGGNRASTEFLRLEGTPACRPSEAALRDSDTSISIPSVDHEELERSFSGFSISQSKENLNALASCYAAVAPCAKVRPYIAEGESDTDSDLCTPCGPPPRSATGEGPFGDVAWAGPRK

[9] = control 3'UTR Renilla luciferase suppression, dose response, counter-screen for Shn3 inhibitor project, cell-based, Clone20-Shn3RL, cherry-picked (AID 624133); assay type: functional
[10] = molecular target: T5, Protein RecA (Mycobacterium tuberculosis, UniProt P9WHJ3); assay: Fluorescence Cell-Free Homogeneous Dose Retest to Identify Inhibitors of RecA-Intein Splicing Activity. [Related pubchem assays (depositor defined):AID2097, AID2223, AID489010, AID492950]; assay type: functional
T5 sequence (P9WHJ3 whole entry): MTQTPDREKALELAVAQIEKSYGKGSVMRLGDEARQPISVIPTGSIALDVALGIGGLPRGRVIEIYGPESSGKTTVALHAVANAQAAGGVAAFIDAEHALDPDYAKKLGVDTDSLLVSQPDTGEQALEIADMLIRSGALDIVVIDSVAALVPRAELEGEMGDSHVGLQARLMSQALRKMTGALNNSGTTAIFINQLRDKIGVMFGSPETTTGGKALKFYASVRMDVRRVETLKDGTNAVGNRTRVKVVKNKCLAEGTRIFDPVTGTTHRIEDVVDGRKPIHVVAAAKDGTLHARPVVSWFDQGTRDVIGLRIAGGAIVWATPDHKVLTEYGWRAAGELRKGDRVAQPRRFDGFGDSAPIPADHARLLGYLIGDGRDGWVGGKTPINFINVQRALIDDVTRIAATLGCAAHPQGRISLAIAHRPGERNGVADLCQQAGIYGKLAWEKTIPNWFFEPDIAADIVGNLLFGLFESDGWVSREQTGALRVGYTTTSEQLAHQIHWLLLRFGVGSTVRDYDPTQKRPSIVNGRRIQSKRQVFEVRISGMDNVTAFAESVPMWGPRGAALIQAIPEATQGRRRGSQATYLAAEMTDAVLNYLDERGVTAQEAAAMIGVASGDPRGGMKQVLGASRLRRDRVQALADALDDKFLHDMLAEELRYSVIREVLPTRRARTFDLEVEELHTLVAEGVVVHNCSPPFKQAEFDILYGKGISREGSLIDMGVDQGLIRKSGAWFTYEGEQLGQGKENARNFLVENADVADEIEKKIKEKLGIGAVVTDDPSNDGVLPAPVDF

[11] = molecular target: T6, Hepatocyte nuclear factor 4-alpha (Homo sapiens, UniProt P41235); assay type: functional, cell-based;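 further: biochemical luminescence-based dose-response counterscreen measuring inhibition of HNF4 dimerization, run alongside a screen for blockers of ABHD5–perilipin-5 interaction; split luciferase complementation of HNF4 fusion proteins in cell lysate measuring dimerization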
T6 sequence (P41235 whole entry): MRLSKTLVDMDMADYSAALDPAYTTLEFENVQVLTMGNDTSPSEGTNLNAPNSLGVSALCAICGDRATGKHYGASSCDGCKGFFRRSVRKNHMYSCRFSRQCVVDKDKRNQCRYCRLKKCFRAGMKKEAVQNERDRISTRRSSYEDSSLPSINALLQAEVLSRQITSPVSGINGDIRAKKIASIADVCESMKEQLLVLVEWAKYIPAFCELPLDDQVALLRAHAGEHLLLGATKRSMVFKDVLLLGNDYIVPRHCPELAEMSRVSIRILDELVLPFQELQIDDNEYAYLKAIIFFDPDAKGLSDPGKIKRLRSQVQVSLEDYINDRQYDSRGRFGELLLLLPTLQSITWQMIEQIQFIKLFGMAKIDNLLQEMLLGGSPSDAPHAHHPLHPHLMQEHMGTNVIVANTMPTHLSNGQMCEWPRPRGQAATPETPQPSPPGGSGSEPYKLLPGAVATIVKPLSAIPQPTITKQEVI

[12] = molecular target: T4, High affinity choline transporter 1; assay: CHT inhibitors, dose response, cell-based, 5-point CRC, membrane potential dye (AID 504840); assay type: functional
[13] = molecular target: ATP-binding cassette sub-family B member 6 (Homo sapiens, UniProt Q9NP58); assay: ABCB6 transporter inhibitors, porphyrin accumulation, dose response, flow cytometry, K562-ABCB6 cells, cherry pick 02 (AID 624487); assay type: functional; conditions: read-out: EC50_MICROM
Chain of ATP-binding cassette sub-family B member 6 (Q9NP58 whole entry): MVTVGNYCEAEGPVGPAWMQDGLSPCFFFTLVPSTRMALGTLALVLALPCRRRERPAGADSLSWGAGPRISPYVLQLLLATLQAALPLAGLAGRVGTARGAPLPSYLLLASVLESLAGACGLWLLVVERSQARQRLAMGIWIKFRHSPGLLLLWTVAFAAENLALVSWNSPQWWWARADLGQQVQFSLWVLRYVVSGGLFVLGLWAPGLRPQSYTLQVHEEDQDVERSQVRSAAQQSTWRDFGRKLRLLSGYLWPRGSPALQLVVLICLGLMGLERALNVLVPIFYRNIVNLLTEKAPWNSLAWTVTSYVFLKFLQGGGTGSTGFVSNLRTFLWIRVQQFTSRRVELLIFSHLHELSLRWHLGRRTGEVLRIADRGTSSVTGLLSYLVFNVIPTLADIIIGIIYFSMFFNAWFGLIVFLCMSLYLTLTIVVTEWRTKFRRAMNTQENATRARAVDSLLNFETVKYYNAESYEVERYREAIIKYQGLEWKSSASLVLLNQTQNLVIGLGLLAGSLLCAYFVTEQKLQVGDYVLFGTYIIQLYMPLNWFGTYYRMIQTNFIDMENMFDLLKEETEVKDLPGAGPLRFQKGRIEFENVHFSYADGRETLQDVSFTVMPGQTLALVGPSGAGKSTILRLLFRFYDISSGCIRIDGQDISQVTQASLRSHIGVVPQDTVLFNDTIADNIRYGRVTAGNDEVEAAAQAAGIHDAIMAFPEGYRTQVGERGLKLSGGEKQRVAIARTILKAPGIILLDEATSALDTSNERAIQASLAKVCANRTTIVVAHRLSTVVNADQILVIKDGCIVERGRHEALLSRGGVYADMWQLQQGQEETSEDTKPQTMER

[14] = HepG2 cell cytotoxicity, dose response, cytotoxicity control for Shn3 inhibitor project, CellTiter-Glo, cherry-picked (AID 624134); assay type: functional, cell-based
[15] = molecular target: T3, Ubiquitin-conjugating enzyme E2 N; assay type: functional; remark: listed apart in the source
[16] = Luminescence Cell-Based Dose Retest to Confirm Inhibitors of Cancer Stem Cells. [Related pubchem assays (depositor defined):AID2717, AID2721]; assay type: functional; conditions: Homo sapiens
[17] = cytotoxicity toward NIH3T3 fibroblasts, dose response, counter-screen, cell-based, ATP luminescence, mouse fibroblasts (AID 2010); assay type: functional;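 further: cells exposed to compound for about 90 hours before reading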
[18] = system: INS1; assay: beta cell apoptosis inhibitors, cytokine rescue, dose response, luminescence, retest (AID 449756); assay type: functional, cell-based; conditions: Rattus norvegicus;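 further: cell death triggered by IL-1 beta plus TNF-alpha plus IFN-gamma mixture; protective hits raise ATP signal compared with cytokine alone wells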
[19] = inhibitors of intracellular T. cruzi replication, confirmation, NIH3T3 host cells, beta-gal luminescence (AID 2044); assay type: functional, cell-based;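 further: intracellular parasites grown in NIH/3T3 mouse fibroblasts as host cells; luminescent beta-galactosidase reporter signal from transgenic T. cruzi replicating inside host cells; inhibitors lower the luminescence signal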
[20] = molecular target: T7, Mannose-6-phosphate isomerase (Homo sapiens, UniProt P34949); assay: inhibitors of human PMI, primary screen, biochemical, fluorescence intensity, coupled assay (AID 1209)
T7 sequence (P34949 whole entry): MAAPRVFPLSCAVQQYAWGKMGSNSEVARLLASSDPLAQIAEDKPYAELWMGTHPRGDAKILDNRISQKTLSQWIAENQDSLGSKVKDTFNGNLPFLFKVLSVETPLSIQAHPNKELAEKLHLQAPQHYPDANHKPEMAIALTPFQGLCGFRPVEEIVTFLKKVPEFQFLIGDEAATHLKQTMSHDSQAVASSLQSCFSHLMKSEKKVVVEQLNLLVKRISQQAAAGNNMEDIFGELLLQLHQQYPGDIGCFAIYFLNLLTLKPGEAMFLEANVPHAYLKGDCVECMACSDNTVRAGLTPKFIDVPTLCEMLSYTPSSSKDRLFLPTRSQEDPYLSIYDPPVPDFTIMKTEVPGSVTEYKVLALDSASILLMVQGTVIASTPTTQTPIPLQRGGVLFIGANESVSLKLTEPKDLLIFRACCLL

[21] = inhibitors of Vif binding to APOBEC3G peptide, primary screen, biochemical, TR-FRET, GST-Vif 1-94, biotin-A3G peptide, dose response retest (AID 1117319); assay type: functional;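 further: TR-FRET signal of purified GST-Vif binding a biotinylated A3G peptide; inhibitors lower the FRET signal by blocking Vif and A3G binding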
[22] = molecular target: T8, Estrogen receptor beta (Homo sapiens, UniProt Q92731);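 further: recombinant ER-beta bound to coactivator SRC1 peptide in presence of estradiol agonist; inhibitors block coactivator peptide binding and lower the FRET signal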
T8 sequence (Q92731 whole entry, the tested form may be a part): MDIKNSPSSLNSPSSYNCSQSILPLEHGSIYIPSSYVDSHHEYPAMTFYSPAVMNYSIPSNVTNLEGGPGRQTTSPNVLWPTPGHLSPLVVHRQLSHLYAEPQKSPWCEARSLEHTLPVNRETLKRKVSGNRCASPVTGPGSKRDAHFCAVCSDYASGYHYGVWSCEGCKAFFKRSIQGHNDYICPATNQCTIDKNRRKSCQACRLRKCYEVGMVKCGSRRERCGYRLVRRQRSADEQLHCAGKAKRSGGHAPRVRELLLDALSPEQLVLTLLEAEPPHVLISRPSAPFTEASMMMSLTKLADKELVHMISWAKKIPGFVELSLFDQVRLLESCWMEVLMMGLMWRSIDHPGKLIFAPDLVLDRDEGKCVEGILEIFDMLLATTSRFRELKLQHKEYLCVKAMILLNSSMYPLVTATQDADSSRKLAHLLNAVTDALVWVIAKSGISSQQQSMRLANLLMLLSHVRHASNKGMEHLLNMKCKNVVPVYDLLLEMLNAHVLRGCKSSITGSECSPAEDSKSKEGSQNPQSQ

[23] = molecular target: T9, Carboxy-terminal domain RNA polymerase II polypeptide A small phosphatase 1 (Homo sapiens, UniProt Q9GZU7); assay: inhibitors of CTDSP1, concentration-response testing, biochemical assay, absorbance-based, actives from ultra-high-throughput screening (AID 540297); assay type: functional
T9 sequence (Q9GZU7 whole entry): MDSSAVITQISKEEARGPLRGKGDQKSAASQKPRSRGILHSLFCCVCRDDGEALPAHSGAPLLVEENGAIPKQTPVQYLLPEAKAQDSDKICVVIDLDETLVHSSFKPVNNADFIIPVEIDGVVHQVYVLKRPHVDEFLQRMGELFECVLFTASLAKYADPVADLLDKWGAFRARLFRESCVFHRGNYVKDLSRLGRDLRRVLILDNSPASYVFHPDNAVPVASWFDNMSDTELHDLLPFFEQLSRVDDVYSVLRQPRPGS

[24] = molecular target: T8, Estrogen receptor beta; assay: ERβ–SRC-3 coactivator interaction inhibitors, confirmation, orthogonal assay, biochemical, ELISA, streptavidin-HRP readout (AID 1060)
[25] = M. tuberculosis H37Rv growth inhibitors, H37Rv strain (AID 1626); assay type: functional
[26] = cells
[27] = molecular target: Aryl hydrocarbon receptor (Homo sapiens, UniProt P35869); assay: Luminescence-based cell-based high throughput dose response assay for activators of the Aryl Hydrocarbon Receptor (AHR). [Related pubchem assays: 2796 (Primary screen (AHR activators in singlicate)), 2845 (Confirmation screen (AHR activators in triplicate)), 434939 (Counterscreen (PXR activators in triplicate)), 2804 (Summary (AHR activators))]; assay type: ADME
Chain of Aryl hydrocarbon receptor (P35869 whole entry): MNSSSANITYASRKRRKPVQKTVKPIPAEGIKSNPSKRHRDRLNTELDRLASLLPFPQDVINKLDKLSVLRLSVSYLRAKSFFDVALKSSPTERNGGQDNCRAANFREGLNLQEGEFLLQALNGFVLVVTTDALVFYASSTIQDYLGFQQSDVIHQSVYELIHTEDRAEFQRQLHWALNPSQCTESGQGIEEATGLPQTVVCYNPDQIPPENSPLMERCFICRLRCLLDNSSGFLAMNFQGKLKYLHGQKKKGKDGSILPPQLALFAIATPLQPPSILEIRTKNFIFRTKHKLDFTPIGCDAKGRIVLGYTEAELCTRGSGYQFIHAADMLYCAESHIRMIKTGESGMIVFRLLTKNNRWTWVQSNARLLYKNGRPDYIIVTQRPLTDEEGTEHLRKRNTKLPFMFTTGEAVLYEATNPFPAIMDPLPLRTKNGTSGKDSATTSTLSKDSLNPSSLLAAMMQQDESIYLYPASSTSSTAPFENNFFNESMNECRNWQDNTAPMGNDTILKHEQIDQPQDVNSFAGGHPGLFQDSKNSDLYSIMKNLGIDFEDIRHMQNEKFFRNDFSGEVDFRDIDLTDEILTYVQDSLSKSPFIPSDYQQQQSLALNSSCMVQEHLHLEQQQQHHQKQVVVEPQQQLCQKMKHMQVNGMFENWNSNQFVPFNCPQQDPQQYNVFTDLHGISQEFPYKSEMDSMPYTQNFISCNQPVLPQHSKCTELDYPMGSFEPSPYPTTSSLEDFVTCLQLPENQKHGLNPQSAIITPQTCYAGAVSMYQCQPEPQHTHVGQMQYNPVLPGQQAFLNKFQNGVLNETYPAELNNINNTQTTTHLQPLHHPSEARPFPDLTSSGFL

[28] = molecular target: NADPH oxidase 1 (Homo sapiens, UniProt Q9Y5S8); assay type: functional, cell-based;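 further: Cell-based assay with luminescence read-out, IC50 derived from inhibitor dose-response curves; intracellular ROS from endogenous NOX1 in intact HT29 colon cancer cells; potency of inhibitors that lower the ROS luminescence signal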
Chain of NADPH oxidase 1 (Q9Y5S8 whole entry): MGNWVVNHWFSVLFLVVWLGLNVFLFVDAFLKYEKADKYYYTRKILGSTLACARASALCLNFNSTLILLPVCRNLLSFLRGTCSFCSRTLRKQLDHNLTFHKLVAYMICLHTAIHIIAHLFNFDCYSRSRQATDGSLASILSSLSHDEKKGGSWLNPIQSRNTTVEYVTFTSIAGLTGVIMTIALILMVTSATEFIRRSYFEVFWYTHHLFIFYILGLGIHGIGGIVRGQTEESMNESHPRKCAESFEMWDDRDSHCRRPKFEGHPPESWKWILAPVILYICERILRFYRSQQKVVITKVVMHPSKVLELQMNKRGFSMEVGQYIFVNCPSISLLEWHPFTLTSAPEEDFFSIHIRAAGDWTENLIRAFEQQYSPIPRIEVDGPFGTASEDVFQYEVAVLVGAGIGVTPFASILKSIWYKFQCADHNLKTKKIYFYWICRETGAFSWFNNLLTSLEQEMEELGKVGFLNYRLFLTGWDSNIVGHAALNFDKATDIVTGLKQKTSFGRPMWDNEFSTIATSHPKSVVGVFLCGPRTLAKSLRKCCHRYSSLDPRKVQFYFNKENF

## Cc1nn(-c2ccc(Cl)cc2)c2sc(C(=O)N3CCN(c4ccccn4)CC3)cc12
[1]
  EC50: 12.8 µM (active)

## CCCc1nnc(NC(=O)c2nc(S(=O)(=O)Cc3cccc(C)c3)ncc2Cl)s1
[2]
  IC50: > 20 µM (inactive)
[3]
  IC50: 12.3 µM (active)
[4]
  AC50: 2.55 µM (active)
[5]
  IC50: 3.16 µM (active)
[6]
  IC50: > 100 µM (active)
[7]
  CC50: > 40 µM (active)
[8]
  EC50: 2.89 µM (active)
[9]
  AC50: 10 µM (active)
[10]
  EC50: > 380 µM (inactive)
[11]
  IC50: 5.71 µM (active)
[12]
  IC50: 3.9 µM (active)
[13]
  EC50: 60.6 µM (active)
[14]
  AC50: > 70 µM (inactive)
[15]
  IC50: > 20 µM (inactive)

## CC1=[N+](C)c2ccc3ccccc3c2C1(C)C
[16]
  AC50: 27.4 µM (active)
[17]
  EC50: > 60 µM (not active)
[18]
  AC50: 6.8 µM (active)
[19]
  EC50: 2.83 µM (active)
[20]
  IC50: > 50 µM (not active)

## CCCCN(CCCC)S(=O)(=O)c1ccc(NC(=O)Cc2cccs2)cc1
[21]
  IC50: > 100 µM (active)
[22]
  IC50: 18.8 µM (active)
[23]
  IC50: 7.14 µM (active)
[24]
  IC50: 1.05 µM (not active)

## O=C(O)/C=C/C(=O)Nc1ccc(-n2nccc2C(F)(F)F)cc1
[25]
  IC50: > 100 µM (active)

## O=C(CCC1CCCN(Cc2ccc3c(c2)OCCO3)C1)NCc1ccc(F)c(F)c1 (stereo unspecified)
[17]
  EC50: > 60 µM (not active)
[19]
  EC50: < 0.1 µM (active)
[26]
  EC50: 0.033 µM (active)

## Cc1ccc[n+](CC(=O)c2ccc(Br)cc2)c1C
[12]
  IC50: 13.8 µM (active)
[27]
  EC50: 6.77 µM (active)

## O=[N+]([O-])c1ccccc1-c1nc(-c2ccccc2)c(-c2ccccc2)[nH]1
[28]
  IC50: > 17 µM (not active)
